As usually defined, the MIC is the least concentration at which growth counts as inhibited. Low readings indicate inhibition by little substance, high ones a need for much substance. Broadly, the MBC is the lowest tested concentration that kills the bacteria rather than only halting them.

SMILES strings stand for the structures. In brackets after ≈: the same amount, converted by molar mass. Like-named read-outs stand apart in the source and are kept apart here. Where only a bound is given, the exact number is not on record here.

These results are taken from US20090030086A1, “ANTIMICROBIAL AGENTS” (priority 2005, published 2009).

The test system of assay [1] is S. aureus ATCC 29213. The experiment in a line: MIC assay. The format is cell-based, Staphylococcus aureus. The method, boiled down: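 Broth microdilution in Mueller-Hinton broth at pH 7.2, incubated aerobically at 37 °C for 24 h and run in duplicate with medium-only and solvent/inoculum controls. The MIC was the lowest concentration whose well stayed visibly clear.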

Assay [2] concerns S. aureus ATCC 29213. The experiment in a line: MBC assay. The format is cell-based, Staphylococcus aureus. The method, boiled down: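 Follows an MIC assay; samples sub-cultured onto non-selective agar and inspected visually for growth to give the minimum lethal concentration. Culture on Mueller-Hinton medium, pH 7.2, aerobic, 37° C, 24 hours.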
The subject of assay [3] is S. aureus ATCC 29213. The experiment in a line: Disc diffusion assay (DDA). Particulars: for zone of inhibition at 200 µg/disc: Staphylococcus aureus, ATCC29213, read-out: DDA (diameter of zone of inhibition). The format is cell-based, Staphylococcus aureus. The method, boiled down:
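Paper discs loaded with test compound (usually 200 μg/disc), solvent evaporated ≥30 min, placed on inoculated Mueller-Hinton agar pH 7.2. Incubated aerobically at 37 °C for 24 h; inhibition zone diameter measured and area calculated as π(D/2)^2.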

Assay [4] deals with S. aureus ATCC 29213. Kind of assay: Supplemented disc diffusion assay. The format is cell-based, Staphylococcus aureus. The note with it: for zone of inhibition at 200 µg/disc: Staphylococcus aureus, ATCC29213, 24 h. The method, boiled down: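 Paper discs loaded with compound (200 μg per disc for most assays) placed on inoculated Mueller-Hinton agar, pH 7.2, supplemented with 5% v/v defibrinated horse blood, 1% v/v Tween 80 and 100 mM NaCl. Aerobic incubation at 37° C for 24 h; inhibition zone diameter measured.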
On the technique in general: A growth-free zone around the sample is the usual read-out of agar diffusion tests.

Assay [5] relates to P. acnes NCTC 737. The experiment in a line: MIC assay. The format is cell-based, Propionibacterium acnes. The method, boiled down:
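Broth microdilution in Wilkins-Chalgren Anaerobe broth pH 6.0, inoculated with freshly grown P. acnes NCTC 737 and incubated anaerobically at 37° C for 72 hours. MIC is the lowest compound concentration leaving the well visually clear, read on a light box. Run in duplicate with medium-only and solvent-plus-inoculum controls.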

Assay [6] concerns P. acnes NCTC 737. The experiment in a line: MBC assay. The format is cell-based, Propionibacterium acnes. The method, boiled down: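 Plates were then checked visually for growth. The MBC is the lowest lethal concentration; cultures were grown on Wilkins-Chalgren Anaerobe Medium at pH 6.0.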
The subject of assay [7] is P. acnes NCTC 737. Kind of assay: Disc diffusion assay (DDA). Particulars: for zone of inhibition at 200 µg/disc: Cutibacterium acnes, NCTC737, read-out: DDA (diameter of zone of inhibition). The format is cell-based, Propionibacterium acnes.
In assay [8] the test system is P. acnes NCTC 737. Kind of assay: Supplemented disc diffusion assay. The note with it: for zone of inhibition at 200 µg/disc: Cutibacterium acnes, NCTC737, 72 h. It is filed as cell-based, Propionibacterium acnes. The method, boiled down: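 Propionibacterium discs loaded with 200 μg compound on Wilkins-Chalgren Anaerobe agar, pH 6.0, supplemented with Tween 80 (1% v/v) and NaCl (100 mM); anaerobic incubation at 37 °C for 72 h. Inhibition zone diameter measured by automated zone sizer.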

Setting [9] is: Staphylococcus aureus, ATCC29213, 24 h, pH 7.2.
Setting [10] is: Staphylococcus aureus, ATCC29213.
Setting [11] is: Cutibacterium acnes, NCTC737, 72 h, pH 6.

Take `Cc1cc(O)c(C)c(O)c1` [2,5-dimethylresorcinol]: the minimum inhibitory concentration (MIC) with S. aureus ATCC 29213 [1] (setting [9]) came to 15.6 µg/mL (≈ 113 µM); against P. acnes NCTC 737 [5] (setting [11]), 3.9 µg/mL (≈ 28.2 µM). Also, the MIC/MBC ratio is reported as less than 0.06 with S. aureus ATCC 29213 [2] and 0.125 with P. acnes NCTC 737 [6] (P. acnes NCTC 737). Further, the minimum bactericidal concentration (MBC) in the assay on S. aureus ATCC 29213 [2] (setting [10]) was greater than 250 µg/mL; against P. acnes NCTC 737 [6] (Cutibacterium acnes, NCTC737), 31.2 µg/mL (≈ 226 µM). Moreover, the zone of inhibition at 200 µg/disc in the assay on S. aureus ATCC 29213 [3] turned out to be 16.7 mm; in the assay with S. aureus ATCC 29213 [4] (read-out: DDA + blood), 0 mm; with S. aureus ATCC 29213 [4] (read-out: DDA + lipid), 13.8 mm; with S. aureus ATCC 29213 [4] (read-out: DDA + salt) it was 16.9 mm; in the assay on P. acnes NCTC 737 [7], 0 mm; with P. acnes NCTC 737 [8] (read-out: DDA + lipid) it was 0 mm. In addition, the zone of inhibition at 200 µg/disc with P. acnes NCTC 737 [8] (read-out: DDA + salt) amounted to 0 mm.

For `Oc1c(Cl)c(Cl)c(O)c(Cl)c1Cl` [tetrachloro-p-hydroquinone], the MIC in the assay on S. aureus ATCC 29213 [1] (S. aureus ATCC 29213, Mueller-Hinton broth pH 7.2, aerobic, 37° C., 24 hours) is 125 µg/mL (≈ 504 µM); in the assay on P. acnes NCTC 737 [5] (P. acnes NCTC 737, Wilkins-Chalgren broth pH 6.0, anaerobic, 37° C., 72 hours) it was 31.25 µg/mL (≈ 126 µM). Besides, the minimum bactericidal concentration (MBC) was found to be 125 µg/mL (≈ 504 µM) with S. aureus ATCC 29213 [2] and 31.25 µg/mL (≈ 126 µM) in the assay on P. acnes NCTC 737 [6] (P. acnes NCTC 737). Moreover, the MIC/MBC ratio in the assay on S. aureus ATCC 29213 [2] and in the assay on P. acnes NCTC 737 [6] (P. acnes NCTC 737) was 1 in each case. The “DDA (diameter of zone of inhibition)” value with S. aureus ATCC 29213 [3] (S. aureus ATCC 29213, unsupplemented agar, 200 μg per disc (thymoquinone 50 μg, 2,6-dimethoxy-p-benzoquinone 100 μg)) is listed as 16.25 mm; with P. acnes NCTC 737 [7] (P. acnes NCTC 737, unsupplemented agar, 200 μg per disc (2,6-dimethoxy-p-benzoquinone 100 μg)), 25.37 mm. In addition, the “DDA + lipid” value was determined as 14.69 mm in the assay on S. aureus ATCC 29213 [4] (S. aureus ATCC 29213, Tween 80 at 1% v/v, 200 μg per disc (thymoquinone 50 μg, 2,6-dimethoxy-p-benzoquinone 100 μg)) and 0.0 mm in the assay with P. acnes NCTC 737 [8] (P. acnes NCTC 737, Tween 80 at 1% v/v, 200 μg per disc (2,6-dimethoxy-p-benzoquinone 100 μg)). In addition, the “DDA + blood” value in the assay on S. aureus ATCC 29213 [4] (S. aureus ATCC 29213, defibrinated horse blood 5% v/v, 200 μg per disc (thymoquinone 50 μg, 2,6-dimethoxy-p-benzoquinone 100 μg)) was found to be 9.38 mm. Further, the “DDA + salt” value in the assay with S. aureus ATCC 29213 [4] (S. aureus ATCC 29213, sodium chloride 100 mM, 200 μg per disc (thymoquinone 50 μg, 2,6-dimethoxy-p-benzoquinone 100 μg)) is listed as 16.88 mm; in the assay on P. acnes NCTC 737 [8] (P. acnes NCTC 737, sodium chloride 100 mM, 200 μg per disc (2,6-dimethoxy-p-benzoquinone 100 μg)) it was 28.27 mm.

`O=C1C=CC(=O)C(Cl)=C1` [2-chloro-p-benzoquinone]: the results for the MIC with S. aureus ATCC 29213 [1] (setting [9]) and in the assay on P. acnes NCTC 737 [5] (setting [11]) were 31.2 µg/mL (≈ 219 µM) and 62.5 µg/mL (≈ 438 µM), respectively. The MIC/MBC ratio in the assay on S. aureus ATCC 29213 [2] is 1; in the assay with P. acnes NCTC 737 [6] (P. acnes NCTC 737), 0.5. Further, the MBC turned out to be 31.2 µg/mL (≈ 219 µM) against S. aureus ATCC 29213 [2] (setting [10]) and 125 µg/mL (≈ 877 µM) in the assay on P. acnes NCTC 737 [6] (Cutibacterium acnes, NCTC737). Also, the zone of inhibition at 200 µg/disc was 25.3 mm in the assay with S. aureus ATCC 29213 [3]; 17.2 mm with S. aureus ATCC 29213 [4] (read-out: DDA + blood); 22.8 mm in the assay on S. aureus ATCC 29213 [4] (read-out: DDA + lipid); 26.2 mm in the assay on S. aureus ATCC 29213 [4] (read-out: DDA + salt); 25.8 mm in the assay with P. acnes NCTC 737 [7]; 31.4 mm in the assay with P. acnes NCTC 737 [8] (read-out: DDA + lipid). The zone of inhibition at 200 µg/disc in the assay with P. acnes NCTC 737 [8] (read-out: DDA + salt) amounted to 31.7 mm. In addition, in the assay with P. acnes NCTC 737 [5], the “activity against P. acnes NCTC 737 (in words)” value is listed as “strongly so”. Further, the “effect of lipid on antimicrobial activity” value in the assay on P. acnes NCTC 737 [8] (P. acnes NCTC 737, activity increases in the presence of lipid) is listed as “potentiated”.

On to `CC1=C(Br)C(=O)C(C(C)C)=C(Br)C1=O` [2,5-dibromo-6-isopropyl-3-methyl-p-benzoquinone], for which, in the assay with S. aureus ATCC 29213 [1], the “activity against S. aureus ATCC 29213 (in words)” value is on record as “strongly so”. Besides, the minimum inhibitory concentration (MIC) in the assay on S. aureus ATCC 29213 [1] (setting [9]) and with P. acnes NCTC 737 [5] (setting [11]) was 0.98 µg/mL (≈ 3.04 µM) throughout. Also, the figures for the MIC/MBC ratio in the assay on S. aureus ATCC 29213 [2] and in the assay with P. acnes NCTC 737 [6] (P. acnes NCTC 737) were 0.5 and 0.25, respectively. Moreover, the minimum bactericidal concentration (MBC) is 1.95 µg/mL (≈ 6.06 µM) against S. aureus ATCC 29213 [2] (setting [10]) and 3.9 µg/mL (≈ 12.1 µM) in the assay on P. acnes NCTC 737 [6] (Cutibacterium acnes, NCTC737). For the same compound, the zone of inhibition at 200 µg/disc in the assay on S. aureus ATCC 29213 [3] was 39.5 mm; in the assay with S. aureus ATCC 29213 [4] (read-out: DDA + blood), 19.3 mm; in the assay on S. aureus ATCC 29213 [4] (read-out: DDA + lipid), 23 mm; in the assay on S. aureus ATCC 29213 [4] (read-out: DDA + salt) it was 42.3 mm; in the assay on P. acnes NCTC 737 [7] it was greater than 90 mm; in the assay with P. acnes NCTC 737 [8] (read-out: DDA + lipid), 34.7 mm. Moreover, in the assay with P. acnes NCTC 737 [8] (read-out: DDA + salt), the zone of inhibition at 200 µg/disc was determined as 71.2 mm. In addition, the “activity against P. acnes NCTC 737 (in words)” value in the assay with P. acnes NCTC 737 [5] is listed as “strongly so”.
